Assay results reported in the supplement of paper PMC10307832.

Tests used:
Experiment in all cases: relative viability (nuclei count vs DMSO), 5 days (fraction); higher = more cells survive
[1] = compound: O=C(CCCCCCNC(=O)c1cnc(N(c2ccccc2)c2ccccc2)nc1)NO [Ricolinostat] + C[C@]1(O)C[C@@H](c2nc(-c3ccc4ccc(-c5ccccc5)nc4c3)c3c(N)nccn32)C1 [Linsitinib] (partner 1 µM)
Method in brief: (§1)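 Each reported value is a median over duplicate plates. It expresses relative viability: treated-well nuclei count divided by vehicle-well nuclei count. Lung cancer cell lines in 1536-well plates were dosed by pin tool a day after seeding, alone with one drug or with a fixed anchor-drug dose plus five library-drug doses (not always all listed) in √10 steps, and nuclei were counted after 5 days.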

[2] = compound: O=C(CCCCCCNC(=O)c1cnc(N(c2ccccc2)c2ccccc2)nc1)NO [Ricolinostat] + CC1(C)CCC(c2ccc(Cl)cc2)=C(CN2CCN(c3ccc(C(=O)NS(=O)(=O)c4ccc(N[C@H](CCN5CCOCC5)CSc5ccccc5)c(S(=O)(=O)C(F)(F)F)c4)cc3)CC2)C1 [Navitoclax] (partner 0.5 µM)
Method in brief: as §1

[3] = compound: C1=CC=C(C(=C1)C2=CC=C(C=C2)C3=CSC4=C3C(=C(C(=O)N4)C#N)O)O + CS(=O)(=O)N1CCN(Cc2cc3nc(-c4cccc5[nH]ncc45)nc(N4CCOCC4)c3s2)CC1 [Pictilisib] (partner 1 µM)
Method in brief: as §1

TGX 221 + Lapatinib = compound: CC1=CN2C(=O)C=C(N=C2C(=C1)C(C)NC3=CC=CC=C3)N4CCOCC4 [TGX 221] + CS(=O)(=O)CCNCc1ccc(-c2ccc3ncnc(Nc4ccc(OCc5cccc(F)c5)c(Cl)c4)c3c2)o1 [Lapatinib] (partner 2 µM)
Method in brief: as §1

Row | Cell Line | relative viability ([1]; first compound 0.08 µM) | relative viability ([1]; first compound 0.253 µM) | relative viability ([1]; first compound 2.53 µM) | relative viability ([2]; first compound 0.08 µM) | relative viability ([2]; first compound 0.253 µM) | relative viability ([2]; first compound 2.53 µM) | relative viability ([3]; first compound 0.08 µM) | relative viability ([3]; first compound 0.253 µM) | relative viability ([3]; first compound 0.8 µM) | relative viability ([3]; first compound 2.53 µM) | relative viability ([3]; first compound 8 µM) | relative viability (TGX 221 + Lapatinib; first compound 0.08 µM) | relative viability (TGX 221 + Lapatinib; first compound 0.253 µM) | relative viability (TGX 221 + Lapatinib; first compound 0.8 µM) | relative viability (TGX 221 + Lapatinib; first compound 2.53 µM) | relative viability (TGX 221 + Lapatinib; first compound 8 µM) | relative viability ([1]; first compound 0.8 µM) | relative viability ([2]; first compound 0.8 µM)
1 | NCI-H1975 | 0.998 | 0.878 | 0.835 | 1.07 | 1.1 | 0.877 | 0.272 | 0.308 | 0.231 | 0.271 | 0.264 | 0.92 | 0.855 | 0.861 | 0.796 | 0.791 | – | –
2 | NCI-H1993 | 0.696 | 0.772 | 0.778 | 0.798 | 1.11 | 1.04 | 0.901 | 1.01 | 0.762 | 0.902 | 0.828 | 0.786 | 0.697 | 0.766 | 0.689 | 0.915 | 0.665 | 1.01
3 | NCI-H2009 | 1.08 | 1.15 | 0.952 | 1.14 | 1.11 | 1.07 | 0.893 | 0.829 | 0.771 | 0.84 | 0.787 | 0.961 | 0.927 | 0.894 | 0.882 | 0.772 | 1.09 | 1.09
4 | NCI-H2023 | 0.612 | 0.614 | 0.625 | 0.849 | 1.01 | 0.906 | 0.185 | 0.215 | 0.263 | 0.204 | 0.22 | 0.79 | 0.718 | 0.73 | 0.689 | 0.769 | 0.627 | 0.995
5 | NCI-H2085 | – | 0.868 | 0.865 | – | 1.14 | 0.947 | 0.414 | 0.517 | 0.528 | 0.418 | 0.399 | 0.666 | 0.644 | 0.681 | 0.469 | 0.462 | 0.922 | 1
6 | NCI-H2087 | 0.896 | 0.986 | 0.847 | 0.96 | 1.04 | 1.04 | 0.783 | 0.892 | 0.956 | 0.848 | 0.772 | 1.09 | 0.912 | 1.13 | 0.985 | 1.11 | 1.01 | 1.02
7 | NCI-H2126 | 0.539 | 0.724 | 0.627 | 0.666 | 0.807 | 0.679 | 0.455 | 0.498 | 0.478 | 0.515 | 0.503 | 0.61 | 0.752 | 0.667 | 0.616 | 0.717 | 0.7 | 0.836
8 | NCI-H2228 | 0.455 | 0.451 | 0.814 | 0.951 | 0.987 | 0.693 | 0.326 | 0.4 | 0.479 | 0.365 | 0.344 | 0.948 | 1.46 | 0.909 | 0.759 | 0.751 | 0.722 | 0.8
9 | NCI-H2347 | 0.832 | 0.92 | 0.906 | 0.623 | 0.739 | 0.671 | 0.624 | 0.609 | 0.496 | 0.626 | 0.454 | 0.945 | 0.908 | 0.976 | 0.996 | 0.915 | 0.876 | 0.73
10 | NCI-H2405 | 0.515 | 0.93 | 1.1 | 0.577 | 0.935 | 0.77 | 0.379 | 0.439 | 0.443 | 0.436 | 0.295 | 0.836 | 1.02 | 0.971 | 1.02 | 0.901 | 1.05 | 0.975
11 | NCI-H3122 | 1.01 | 1.02 | 1.05 | 0.918 | 0.984 | 1.14 | 0.6 | 0.666 | 0.676 | 0.682 | 0.662 | 1.01 | 0.994 | 1.02 | 1.01 | 0.985 | 1.13 | 1.07
12 | PC-3 [JPC-3] | 0.894 | 0.925 | 0.793 | 0.778 | 0.77 | 0.574 | 0.69 | 0.888 | 0.665 | 0.685 | 0.652 | 0.448 | 0.46 | 0.445 | 0.431 | 0.429 | 0.9 | 0.739
13 | PC-14 | 0.928 | 0.897 | 0.763 | 0.968 | 0.947 | 0.962 | 0.604 | 0.674 | 0.658 | 0.797 | 0.52 | 0.334 | 0.269 | 0.289 | 0.28 | 0.26 | 0.907 | 1.05
14 | RERF-LC-KJ | 0.952 | 0.77 | 0.824 | 0.831 | 0.993 | 0.787 | 0.576 | 0.538 | 0.567 | 0.466 | 0.493 | 0.837 | 0.824 | 0.749 | 0.829 | 0.84 | 0.897 | 0.841
15 | SK-LU-1 | 1.09 | 0.96 | 0.76 | 0.863 | 0.816 | 0.502 | 0.426 | 0.532 | 0.57 | 0.61 | 0.508 | 0.883 | 0.951 | 0.754 | 0.898 | 0.682 | 1.18 | 0.642
16 | SK-MES-1 | 1.01 | 1.01 | 1.02 | 1.07 | 1.22 | 1.23 | 0.33 | 0.368 | 0.354 | 0.284 | 0.307 | 0.487 | 0.414 | 0.422 | 0.39 | 0.381 | 1.12 | 1.21
17 | SW 1573 | 0.673 | 0.781 | 0.853 | 0.807 | 0.993 | 1.01 | 0.475 | 0.571 | 0.54 | 0.458 | 0.37 | 1.01 | 1.01 | 1.1 | 0.852 | 1.12 | 0.781 | 0.901
18 | UMC-11 | 1.02 | 0.932 | 0.723 | 0.31 | 0.343 | 0.158 | 0.695 | 0.717 | 0.855 | 0.829 | 0.778 | 0.879 | 0.854 | 0.901 | 0.909 | 1.18 | 1 | 0.267
